Source: ChEMBL document CHEMBL5512683, “Discovery of Novel ERα and Aromatase Dual-Targeting PROTAC Degraders to Overcome Endocrine-Resistant Breast Cancer” (J Med Chem, 2024)
The source made the active and inactive calls. The calls are words filed in the database; no cut-off is given here.

Experiments:
[1] = Anti-proliferative activity against human MCF-10A cells incubated for 96 hrs by CCK8 assay; type: toxicity, cell-based
Aromatase = molecular target: T1, Aromatase (Homo sapiens, UniProt P11511); test: Inhibition of recombinant human aromatase using ARO substrate/NADP+ mixture by fluorescence assay
T1 sequence (P11511 whole entry): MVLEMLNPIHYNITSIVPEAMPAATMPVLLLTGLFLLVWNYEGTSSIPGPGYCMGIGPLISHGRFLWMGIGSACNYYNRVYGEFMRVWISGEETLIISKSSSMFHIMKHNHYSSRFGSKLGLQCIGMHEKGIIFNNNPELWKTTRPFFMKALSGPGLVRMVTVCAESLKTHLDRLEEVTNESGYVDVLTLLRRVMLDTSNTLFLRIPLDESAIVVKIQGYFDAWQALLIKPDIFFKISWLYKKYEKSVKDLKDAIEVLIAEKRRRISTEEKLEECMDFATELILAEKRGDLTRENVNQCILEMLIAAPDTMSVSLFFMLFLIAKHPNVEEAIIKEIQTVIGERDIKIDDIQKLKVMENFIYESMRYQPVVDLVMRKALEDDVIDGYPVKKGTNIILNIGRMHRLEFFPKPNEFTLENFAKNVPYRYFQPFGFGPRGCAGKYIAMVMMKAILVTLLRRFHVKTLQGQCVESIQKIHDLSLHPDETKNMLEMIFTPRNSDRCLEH

MCF7 [2] = test: Antiproliferative activity against human resistant MCF7 cells harboring ERalpha D538G mutant at LBD assessed as cell viability incubated for 96 hrs by CCK8 assay; conditions: MCF7, 96 h
MCF7 [3] = test: Antiproliferative activity against human resistant MCF7 cells harboring EGFR assessed as cell viability incubated for 96 hrs by CCK8 assay; conditions: MCF7, 96 h
MCF7 [4] = test: Antiproliferative activity against human resistant MCF7 cells harboring ERalpha Y537S mutant at LBD assessed as cell viability incubated for 96 hrs by CCK8 assay; conditions: MCF7, 96 h
MCF7 [5] = test: Anti-proliferative activity against ERalpha positive human MCF7 cells incubated for 96 hrs by CCK8 assay; conditions: MCF7, 96 h
[6] = molecular target: von Hippel-Lindau disease tumor suppressor/Aromatase (Homo sapiens, UniProt P11511+P40337); test: PROTAC activity at human ARO/VHL E3 ligase in human MCF-7 cells assessed as degradation of ARO at 1 uM incubated for 24 hrs by Western blot analysis; type: cell-based; conditions: mcf7, 24 h
Estrogen receptor beta = Estrogen receptor beta (Homo sapiens, UniProt Q92731); test: Binding affinity to human ERbeta assessed as inhibition constant incubated under dark condition for 2 hrs by competitive fluorometric binding assay
MCF7 [7] = test: In vivo PROTAC activity in aromatase/VHL E3 ligase in human MCF7 cell xenografted in Balb/c mouse model assessed as reduction in ARO level in tumor at 5 mg/kg, ip every other day measured upto 20 days; type: functional, organism-based; conditions: time <= 20.0 day
MCF7 [8] = test: In vivo PROTAC activity in ERalpha/VHL E3 ligase in human MCF7 cell xenografted in Balb/c mouse model assessed as reduction in ERalpha level in tumor at 5 mg/kg, ip every other day measured upto 20 days; type: functional, organism-based; conditions: time <= 20.0 day

Sequence of von Hippel-Lindau disease tumor suppressor/Aromatase (P40337 whole entry, one chain of several): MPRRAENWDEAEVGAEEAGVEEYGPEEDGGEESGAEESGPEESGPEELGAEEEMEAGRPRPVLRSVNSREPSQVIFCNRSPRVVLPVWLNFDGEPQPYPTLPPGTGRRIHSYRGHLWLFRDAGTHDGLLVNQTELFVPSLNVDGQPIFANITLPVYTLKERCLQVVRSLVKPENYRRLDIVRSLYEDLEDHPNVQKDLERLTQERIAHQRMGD
Sequence of Estrogen receptor beta (Q92731 whole entry): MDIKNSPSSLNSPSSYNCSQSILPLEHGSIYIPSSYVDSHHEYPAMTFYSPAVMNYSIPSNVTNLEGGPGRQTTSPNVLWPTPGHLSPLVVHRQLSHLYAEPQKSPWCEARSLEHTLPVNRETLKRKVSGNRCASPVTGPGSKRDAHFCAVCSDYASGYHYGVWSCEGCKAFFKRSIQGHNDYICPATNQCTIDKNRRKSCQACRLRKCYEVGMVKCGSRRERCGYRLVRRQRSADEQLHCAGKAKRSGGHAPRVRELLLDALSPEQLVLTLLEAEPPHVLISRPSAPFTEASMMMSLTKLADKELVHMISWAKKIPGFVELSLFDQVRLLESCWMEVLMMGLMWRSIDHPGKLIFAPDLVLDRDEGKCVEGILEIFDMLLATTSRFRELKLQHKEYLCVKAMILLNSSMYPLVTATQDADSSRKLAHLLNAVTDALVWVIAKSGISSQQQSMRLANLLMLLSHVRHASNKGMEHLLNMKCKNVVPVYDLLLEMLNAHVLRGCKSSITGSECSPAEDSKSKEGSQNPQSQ

Compound	IC50 at 96 h [1] [µM]	IC50 (Aromatase) [µM]	IC50 (MCF7 [2]) [µM]	IC50 (MCF7 [3]) [µM]	IC50 (MCF7 [4]) [µM]	IC50 (MCF7 [5]) [µM]	Activity [6]	Ki (Estrogen receptor beta) [µM]	Activity (MCF7 [7])	Activity (MCF7 [8])
CC/C(=C(\c1ccc(O)cc1)c1ccc(OCCN(C)C)cc1)c1ccccc1 [AFIMOXIFENE]	21	> 100	–	–	–	–	–	–	–	–
Cc1ncsc1-c1ccc([C@H](C)NC(=O)[C@@H]2C[C@@H](O)CN2C(=O)[C@@H](NC(=O)CCCCCCCOc2ccc(N(CC(F)(F)F)S(=O)(=O)C3CC4OC3C(c3ccc(-n5ccnc5)cc3)=C4c3ccc(O)cc3)cc2)C(C)(C)C)cc1 (stereo partly specified)	> 100	10	29	4.7	30	1.8	Active	–	–	–
Cc1ncsc1-c1ccc([C@H](C)NC(=O)[C@@H]2C[C@@H](O)CN2C(=O)[C@@H](NC(=O)CCCCCOc2ccc(N(CC(F)(F)F)S(=O)(=O)C3CC4OC3C(c3ccc(-n5cncn5)cc3)=C4c3ccc(O)cc3)cc2)C(C)(C)C)cc1 (stereo partly specified)	> 100	> 100	0.69	0.63	4	0.56	–	–	–	–
Cc1ncsc1-c1ccc([C@H](C)NC(=O)[C@@H]2C[C@@H](O)CN2C(=O)[C@@H](NC(=O)CCCCCCCCCOc2ccc(N(CC(F)(F)F)S(=O)(=O)C3CC4OC3C(c3ccc(-n5ccnc5)cc3)=C4c3ccc(O)cc3)cc2)C(C)(C)C)cc1 (stereo partly specified)	> 100	> 100	> 100	> 100	100	0.33	Active	> 79	–	–
Cc1ncsc1-c1ccc([C@H](C)NC(=O)[C@@H]2C[C@@H](O)CN2C(=O)[C@@H](NC(=O)CCCOc2ccc(N(CC(F)(F)F)S(=O)(=O)C3CC4OC3C(c3ccc(-n5ccnc5)cc3)=C4c3ccc(O)cc3)cc2)C(C)(C)C)cc1 (stereo partly specified)	> 100	1.2	> 100	> 100	> 100	0.13	Active	–	–	–
Cc1ncsc1-c1ccc([C@H](C)NC(=O)[C@@H]2C[C@@H](O)CN2C(=O)[C@@H](NC(=O)CCCCOc2ccc(N(CC(F)(F)F)S(=O)(=O)C3CC4OC3C(c3ccc(-n5ccnc5)cc3)=C4c3ccc(O)cc3)cc2)C(C)(C)C)cc1 (stereo partly specified)	> 100	0.32	100	2.2	> 100	0.6	Active	–	–	–
Cc1ncsc1-c1ccc([C@H](C)NC(=O)[C@@H]2C[C@@H](O)CN2C(=O)[C@@H](NC(=O)CCCCCCCCOc2ccc(N(CC(F)(F)F)S(=O)(=O)C3CC4OC3C(c3ccc(-n5ccnc5)cc3)=C4c3ccc(O)cc3)cc2)C(C)(C)C)cc1 (stereo partly specified)	> 100	> 100	1.8	1.4	100	1.3	Active	> 79	–	–
Cc1ncsc1-c1ccc([C@H](C)NC(=O)[C@@H]2C[C@@H](O)CN2C(=O)[C@@H](NC(=O)CCCCCCCCCCCOc2ccc(N(CC(F)(F)F)S(=O)(=O)C3CC4OC3C(c3ccc(-n5ccnc5)cc3)=C4c3ccc(O)cc3)cc2)C(C)(C)C)cc1 (stereo partly specified)	> 100	> 100	0.23	> 100	3.5	2	Active	> 79	–	–
O=C(COc1cccc2c1C(=O)N(C1CCC(=O)NC1=O)C2=O)NCCCOc1ccc(N(CC(F)(F)F)S(=O)(=O)C2CC3OC2C(c2ccc(-n4ccnc4)cc2)=C3c2ccc(O)cc2)cc1 (stereo unspecified)	> 100	> 100	6.4	25	9.5	8.7	–	> 79	–	–
COc1ccc(N(CC(F)(F)F)S(=O)(=O)C2CC3OC2C(c2ccc(O)cc2)=C3c2ccc(O)cc2)cc1 (stereo unspecified)	–	> 100	–	–	–	–	–	–	–	–
Cc1ncsc1-c1ccc([C@H](C)NC(=O)[C@@H]2C[C@@H](O)CN2C(=O)[C@@H](NC(=O)COCCOCCOCCOCCOc2ccc(N(CC(F)(F)F)S(=O)(=O)C3CC4OC3C(c3ccc(-n5ccnc5)cc3)=C4c3ccc(O)cc3)cc2)C(C)(C)C)cc1 (stereo partly specified)	> 100	0.64	26	17	100	2.4	Active	–	–	–
O=C(COc1cccc2c1C(=O)N(C1CCC(=O)NC1=O)C2=O)NCCCCCOc1ccc(N(CC(F)(F)F)S(=O)(=O)C2CC3OC2C(c2ccc(-n4ccnc4)cc2)=C3c2ccc(O)cc2)cc1 (stereo unspecified)	> 100	> 100	3.6	23	23	9.3	–	> 79	–	–
N#Cc1ccc(C(c2ccc(C#N)cc2)n2cncn2)cc1 [LETROZOLE]	> 100	–	–	–	–	–	–	–	Active	Active
C[C@]12CC[C@@H]3c4ccc(O)cc4C[C@@H](CCCCCCCCC[S+]([O-])CCCC(F)(F)C(F)(F)F)[C@H]3[C@@H]1CC[C@@H]2O (stereo partly specified) [FULVESTRANT]	> 100	> 100	–	–	–	–	–	–	Active	Active
Cc1ncsc1-c1ccc([C@H](C)NC(=O)[C@@H]2C[C@@H](O)CN2C(=O)[C@@H](NC(=O)COCCOc2ccc(N(CC(F)(F)F)S(=O)(=O)C3CC4OC3C(c3ccc(-n5ccnc5)cc3)=C4c3ccc(O)cc3)cc2)C(C)(C)C)cc1 (stereo partly specified)	> 100	3.9	> 100	> 100	15	1.5	Active	> 79	–	–
Cc1ncsc1-c1ccc([C@H](C)NC(=O)[C@@H]2C[C@@H](O)CN2C(=O)[C@@H](NC(=O)CCCCCCCCCCOc2ccc(N(CC(F)(F)F)S(=O)(=O)C3CC4OC3C(c3ccc(-n5ccnc5)cc3)=C4c3ccc(O)cc3)cc2)C(C)(C)C)cc1 (stereo partly specified)	> 100	> 100	> 100	> 100	22	4.9	Active	–	–	–
Cc1ncsc1-c1ccc([C@H](C)NC(=O)[C@@H]2C[C@@H](O)CN2C(=O)[C@@H](NC(=O)CCCCCCOc2ccc(N(CC(F)(F)F)S(=O)(=O)C3CC4OC3C(c3ccc(-n5ccnc5)cc3)=C4c3ccc(O)cc3)cc2)C(C)(C)C)cc1 (stereo partly specified)	> 100	5.2	1.7	5.5	> 100	2.3	Active	–	–	–
Cc1ncsc1-c1ccc([C@@H](C)NC(=O)[C@H]2C[C@H](O)CN2C(=O)[C@H](NC(=O)COCCOCCOCCOc2ccc(N(CC(F)(F)F)S(=O)(=O)C3CC4OC3C(c3ccc(-n5ccnc5)cc3)=C4c3ccc(O)cc3)cc2)C(C)(C)C)cc1 (stereo partly specified)	> 100	2.6	> 100	7.3	100	0.51	Active	–	–	–
